The assay concerns the target T1, F508delCFTR (Homo sapiens, UniProt P13569, DEL508-508).
T1 construct: expressed in transfected cells; host or cells: CFBE41o- (human lung derived epithelial cell line), doxycycline-inducible expression
Kind of assay: Cell Surface Expression-Horse Radish Peroxidase (CSE-HRP) assay. Format: cell-based. As to conditions: CFBE41o-F508delCFTR-HRP cells; for Maximum % activity (with co-corrector): with co-corrector (2 μM); for Maximum % activity (with co-corrector) / Maximum % activity (without co-corrector): normalized to on-plate positive control, highest concentration 20 μM. An outline of the steps: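 CFBE41o- cells expressed F508delCFTR with HRP in the fourth exofacial loop, induced by 0.5 μg/mL doxycycline for 72 h at 37 °C. Compounds alone or with 2 μM co-corrector ran 18–24 h at 33 °C, 8-point 3-fold from 20 μM. Washed-cell luminol luminescence was normalized to DMSO and positive control, fitted sigmoidally for EC50 (three plates).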

Where [1] appears, read: test compound without co-corrector, 18-24 hours at 33° C., read-out: EC50 (without co-corrector).
[2] abbreviates: with co-corrector (2 μM of 3-[(2R,4R)-4-({[1-(2,2-difluoro-1,3-benzodioxol-5-yl)cyclopropyl]carbonyl}amino)-7-methoxy-3,4-dihydro-2H-chromen-2-yl]benzoic acid), read-out: EC50 (with co-corrector).

Like-named read-outs stand apart in the source and are kept apart here.

T1 sequence (P13569 with tags, fused parts or gaps DEL508-508): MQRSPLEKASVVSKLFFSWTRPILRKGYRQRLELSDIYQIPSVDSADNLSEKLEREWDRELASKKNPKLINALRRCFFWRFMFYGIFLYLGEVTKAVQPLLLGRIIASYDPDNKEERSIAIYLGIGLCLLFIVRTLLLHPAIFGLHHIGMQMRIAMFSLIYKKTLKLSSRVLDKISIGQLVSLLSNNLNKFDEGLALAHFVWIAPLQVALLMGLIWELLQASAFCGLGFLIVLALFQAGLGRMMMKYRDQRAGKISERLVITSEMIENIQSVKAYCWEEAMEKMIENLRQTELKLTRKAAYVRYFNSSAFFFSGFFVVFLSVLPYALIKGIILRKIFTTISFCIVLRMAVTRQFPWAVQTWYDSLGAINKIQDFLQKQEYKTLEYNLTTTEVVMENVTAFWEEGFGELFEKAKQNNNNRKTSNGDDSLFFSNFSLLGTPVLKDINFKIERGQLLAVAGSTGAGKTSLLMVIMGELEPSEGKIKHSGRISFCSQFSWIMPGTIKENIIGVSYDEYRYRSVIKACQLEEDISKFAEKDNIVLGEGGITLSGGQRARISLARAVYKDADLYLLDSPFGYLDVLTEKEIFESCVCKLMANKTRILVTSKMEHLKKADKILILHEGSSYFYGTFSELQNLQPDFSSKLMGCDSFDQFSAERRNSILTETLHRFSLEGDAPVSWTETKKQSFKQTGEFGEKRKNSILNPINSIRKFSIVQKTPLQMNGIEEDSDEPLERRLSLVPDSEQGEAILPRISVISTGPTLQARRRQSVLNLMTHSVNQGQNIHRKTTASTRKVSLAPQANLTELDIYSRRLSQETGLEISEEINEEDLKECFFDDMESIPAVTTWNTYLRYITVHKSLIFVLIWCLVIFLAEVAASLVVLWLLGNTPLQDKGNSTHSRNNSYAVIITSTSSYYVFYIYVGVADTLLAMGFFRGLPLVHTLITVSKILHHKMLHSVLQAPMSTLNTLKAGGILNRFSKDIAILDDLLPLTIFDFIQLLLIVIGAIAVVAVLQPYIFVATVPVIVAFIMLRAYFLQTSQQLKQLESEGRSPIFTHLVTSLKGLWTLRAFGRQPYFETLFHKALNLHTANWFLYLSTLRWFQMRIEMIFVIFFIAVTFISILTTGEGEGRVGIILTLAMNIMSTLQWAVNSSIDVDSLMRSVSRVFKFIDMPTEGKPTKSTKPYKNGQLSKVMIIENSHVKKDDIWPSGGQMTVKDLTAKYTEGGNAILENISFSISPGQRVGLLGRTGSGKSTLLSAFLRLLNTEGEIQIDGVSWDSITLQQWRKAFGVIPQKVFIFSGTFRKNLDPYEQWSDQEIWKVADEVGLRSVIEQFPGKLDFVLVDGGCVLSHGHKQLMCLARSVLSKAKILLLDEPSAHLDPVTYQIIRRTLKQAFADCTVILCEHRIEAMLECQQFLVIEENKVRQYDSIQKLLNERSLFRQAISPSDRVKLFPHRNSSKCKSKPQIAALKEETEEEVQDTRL

Usually EC50 stands for the concentration at which the effect is half-maximal. With `COc1ncc(C(F)(F)F)cc1CO[C@H]1[C@H](C(C)(C)C)[C@@H](C(=O)O)N(C(=O)OC(C)C)[C@H]1c1ccccc1C1CC1` [Example 92, (2S,3R,4S,5S)-3-tert-butyl-5-(2-cyclopropylphenyl)-4-{[2-methoxy-5-(trifluoromethyl)pyridin-3-yl]methoxy}-1-{[(propan-2-yl)oxy]carbonyl}pyrrolidine-2-carboxylic acid], the “Maximum % activity (with co-corrector)” value is reported as “+++ (≥350)”; the “Maximum % activity (without co-corrector)” value is “++ (≥100 and <200)”. Under setting [1], the EC50 lay within 1000 to 10000 nM. Also, the EC50 under setting [2] is 1000 to 10000 nM.
With `COc1ncc(C2CCC2)cc1CO[C@H]1[C@H](C(C)(C)C)[C@@H](C(=O)O)N(C(=O)OC(C)C)[C@H]1c1ccccc1C(C)C` [Example 93, (2S,3R,4S,5S)-3-tert-butyl-4-[(5-cyclobutyl-2-methoxypyridin-3-yl)methoxy]-1-{[(propan-2-yl)oxy]carbonyl}-5-[2-(propan-2-yl)phenyl]pyrrolidine-2-carboxylic acid], the “Maximum % activity (with co-corrector)” value is “+++ (≥350)”; the “Maximum % activity (without co-corrector)” value is “++ (≥100 and <200)”. The EC50 under setting [1] was 1000 to 10000 nM. Moreover, under setting [2], the EC50 was 1000 to 10000 nM.
In the case of `COc1ccc(C(F)(F)F)cc1CO[C@@H]1[C@H](C(C)(C)C)[C@@H](C(=O)O)N(C(=O)OC(C)C)[C@H]1c1cccnc1OC(C)C` [Example 94, (2S,3R,4R,5S)-3-tert-butyl-4-{[2-methoxy-5-(trifluoromethyl)phenyl]methoxy}-1-{[(propan-2-yl)oxy]carbonyl}-5-{2-[(propan-2-yl)oxy]pyridin-3-yl}pyrrolidine-2-carboxylic acid], the “Maximum % activity (with co-corrector)” value is reported as “+ (<150)” and the “Maximum % activity (without co-corrector)” value is “+ (<100)”. In addition, the EC50 under setting [1] is greater than 10000 nM. Also, under setting [2], the EC50 was less than 1000 nM.
With `COc1ncc(C2CCC2)cc1CO[C@H]1[C@H](C(C)(C)C)[C@@H](C(=O)O)N(C(=O)OC(C)C)[C@H]1c1cccnc1OC(C)C` [Example 95, (2S,3R,4S,5S)-3-tert-butyl-4-[(5-cyclobutyl-2-methoxypyridin-3-yl)methoxy]-1-{[(propan-2-yl)oxy]carbonyl}-5-{2-[(propan-2-yl)oxy]pyridin-3-yl}pyrrolidine-2-carboxylic acid], the “Maximum % activity (with co-corrector)” value is on record as “+++ (≥350)”; the “Maximum % activity (without co-corrector)” value was “++ (≥100 and <200)”. Also, under setting [1], the EC50 was 1000 to 10000 nM. The EC50 under setting [2] was less than 1000 nM.
For the compound `COc1ncc(C(F)(F)F)cc1CO[C@H]1[C@H](C(C)(C)C)[C@@H](C(=O)O)N(C(=O)[C@@H]2CCCCO2)[C@H]1c1ccccc1C(C)C` [Example 96, (2S,3R,4S,5S)-3-tert-butyl-4-{[2-methoxy-5-(trifluoromethyl)pyridin-3-yl]methoxy}-1-[(2S)-oxane-2-carbonyl]-5-[2-(propan-2-yl)phenyl]pyrrolidine-2-carboxylic acid], the “Maximum % activity (with co-corrector)” value is “+++ (≥350)” and the “Maximum % activity (without co-corrector)” value was “+++ (≥200)”. For the same compound, the EC50 under setting [1] is less than 1000 nM. For the same compound, under setting [2], the EC50 was less than 1000 nM.
Turning to `COc1ncc(C(F)(F)F)cc1CO[C@H]1[C@H](C(C)(C)C)[C@@H](C(=O)O)N(C(=O)[C@H]2CCCCO2)[C@H]1c1ccccc1C(C)C` [Example 97, (2S,3R,4S,5S)-3-tert-butyl-4-{[2-methoxy-5-(trifluoromethyl)pyridin-3-yl]methoxy}-1-[(2R)-oxane-2-carbonyl]-5-[2-(propan-2-yl)phenyl]pyrrolidine-2-carboxylic acid], the “Maximum % activity (with co-corrector)” value is reported as “+++ (≥350)”; the “Maximum % activity (without co-corrector)” value was “++ (≥100 and <200)”. Further, under setting [1], the EC50 lay within 1000 to 10000 nM. Moreover, the concentration for a half-maximal effect (EC50) under setting [2] is 1000 to 10000 nM.
As for `COc1ncc(C(F)(F)F)cc1CO[C@H]1[C@H](C(C)(C)C)[C@@H](C(=O)O)N(C(=O)[C@@H]2CCCO2)[C@H]1c1ccccc1C(C)C` [Example 98, (2S,3R,4S,5S)-3-tert-butyl-4-{[2-methoxy-5-(trifluoromethyl)pyridin-3-yl]methoxy}-1-[(2S)-oxolane-2-carbonyl]-5-[2-(propan-2-yl)phenyl]pyrrolidine-2-carboxylic acid], the “Maximum % activity (with co-corrector)” value is listed as “+++ (≥350)”; the “Maximum % activity (without co-corrector)” value was “++ (≥100 and <200)”. Besides, the EC50 under setting [1] is less than 1000 nM. The EC50 under setting [2] was less than 1000 nM.
On to `COc1ncc(C(F)(F)F)cc1CO[C@H]1[C@H](C(C)(C)C)[C@@H](C(=O)O)N(C(=O)OC(C)C)[C@H]1c1ccccc1Cl` [Example 99, (2S,3R,4S,5S)-3-tert-butyl-5-(2-chlorophenyl)-4-{[2-methoxy-5-(trifluoromethyl)pyridin-3-yl]methoxy}-1-{[(propan-2-yl)oxy]carbonyl}pyrrolidine-2-carboxylic acid], for which the “Maximum % activity (with co-corrector)” value was “+++ (≥350)”; the “Maximum % activity (without co-corrector)” value was “++ (≥100 and <200)”. Further, under setting [1], the EC50 fell in the range of 1000 to 10000 nM. Besides, the EC50 under setting [2] is 1000 to 10000 nM.
For `COc1cnc(C2CCC2)cc1CO[C@H]1[C@H](C(C)(C)C)[C@@H](C(=O)O)N(C(=O)OC(C)C)[C@H]1c1ccccc1` [Example 100, (2S,3R,4S,5S)-3-tert-butyl-4-[(2-cyclobutyl-5-methoxypyridin-4-yl)methoxy]-5-phenyl-1-{[(propan-2-yl)oxy]carbonyl}pyrrolidine-2-carboxylic acid], the “Maximum % activity (with co-corrector)” value is “++ (≥150 and <350)”; the “Maximum % activity (without co-corrector)” value is “+ (<100)”. Further, under setting [1], the EC50 was in the range of 1000 to 10000 nM. Further, the EC50 under setting [2] fell in the range of 1000 to 10000 nM.
As for `COc1ncc(C(F)(F)F)cc1CO[C@H]1[C@H](C(C)(C)C)[C@@H](C(=O)O)N(C(=O)OC(C)C)[C@H]1c1ccccc1C1CCC1` [Example 101, (2S,3R,4S,5S)-3-tert-butyl-5-(2-cyclobutylphenyl)-4-{[2-methoxy-5-(trifluoromethyl)pyridin-3-yl]methoxy}-1-{[(propan-2-yl)oxy]carbonyl}pyrrolidine-2-carboxylic acid], the “Maximum % activity (with co-corrector)” value is recorded as “+++ (≥350)”; the “Maximum % activity (without co-corrector)” value was “++ (≥100 and <200)”. Further, the 50% effective concentration (EC50) under setting [1] was in the range of 1000 to 10000 nM. Moreover, the EC50 under setting [2] lay in the range of 1000 to 10000 nM.
Regarding `COc1ncc(C(F)(F)F)cc1CO[C@H]1[C@H](C(C)(C)C)[C@@H](C(=O)O)N(C(=O)[C@H]2CCCO2)[C@H]1c1ccccc1C(C)C` [Example 102, (2S,3R,4S,5S)-3-tert-butyl-4-{[2-methoxy-5-(trifluoromethyl)pyridin-3-yl]methoxy}-1-[(2R)-oxolane-2-carbonyl]-5-[2-(propan-2-yl)phenyl]pyrrolidine-2-carboxylic acid], the “Maximum % activity (with co-corrector)” value was “++ (≥150 and <350)”; the “Maximum % activity (without co-corrector)” value was “+ (<100)”. For the same compound, under setting [1], the EC50 is 1000 to 10000 nM. The EC50 under setting [2] was in the range of 1000 to 10000 nM.
For the compound `COc1ncc(C(F)(F)F)cc1CO[C@H]1[C@H](C(C)(C)C)[C@@H](C(=O)O)N(C(=O)[C@@H]2CCCCO2)[C@H]1c1ccccc1Cl` [Example 103, (2S,3R,4S,5S)-3-tert-butyl-5-(2-chlorophenyl)-4-{[2-methoxy-5-(trifluoromethyl)pyridin-3-yl]methoxy}-1-[(2S)-oxane-2-carbonyl]pyrrolidine-2-carboxylic acid], the “Maximum % activity (with co-corrector)” value is reported as “+++ (≥350)”; the “Maximum % activity (without co-corrector)” value was “++ (≥100 and <200)”. Further, the EC50 under setting [1] lay in the range of 1000 to 10000 nM. Moreover, the EC50 under setting [2] was less than 1000 nM.
As for `COc1ncc(C(F)(F)F)cc1CO[C@H]1[C@H](C(C)(C)C)[C@@H](C(=O)O)N(C(=O)[C@H]2CCCCO2)[C@H]1c1ccccc1Cl` [Example 104, (2S,3R,4S,5S)-3-tert-butyl-5-(2-chlorophenyl)-4-{[2-methoxy-5-(trifluoromethyl)pyridin-3-yl]methoxy}-1-[(2R)-oxane-2-carbonyl]pyrrolidine-2-carboxylic acid], the “Maximum % activity (with co-corrector)” value was “+++ (≥350)”; the “Maximum % activity (without co-corrector)” value was “++ (≥100 and <200)”. Besides, the EC50 under setting [1] lay in the range of 1000 to 10000 nM. Further, the EC50 under setting [2] fell in the range of 1000 to 10000 nM.
As for `COc1ncc(C(F)(F)F)cc1CO[C@H]1[C@H](C(C)(C)C)[C@@H](C(=O)O)N(C(=O)OC(C)C)[C@H]1c1ccccc1OC(C)C` [Example 105, (2S,3R,4S,5S)-3-tert-butyl-4-{[2-methoxy-5-(trifluoromethyl)pyridin-3-yl]methoxy}-1-{[(propan-2-yl)oxy]carbonyl}-5-{2-[(propan-2-yl)oxy]phenyl}pyrrolidine-2-carboxylic acid], the “Maximum % activity (with co-corrector)” value was “+++ (≥350)”; the “Maximum % activity (without co-corrector)” value is “++ (≥100 and <200)”. The EC50 under setting [1] was less than 1000 nM. Moreover, under setting [2], the concentration giving a half-maximal response (EC50) was less than 1000 nM.
As to `COc1nc2ccccc2cc1CO[C@H]1[C@H](C(C)(C)C)[C@@H](C(=O)O)N(C(=O)OC(C)C)[C@H]1c1ccccc1` [Example 106, (2S,3R,4S,5S)-3-tert-butyl-4-[(2-methoxyquinolin-3-yl)methoxy]-5-phenyl-1-{[(propan-2-yl)oxy]carbonyl}pyrrolidine-2-carboxylic acid], the “Maximum % activity (with co-corrector)” value is “++ (≥150 and <350)”; the “Maximum % activity (without co-corrector)” value was “+ (<100)”. Under setting [1], the EC50 fell in the range of 1000 to 10000 nM. The EC50 under setting [2] fell in the range of 1000 to 10000 nM.
